In paper PMC4189421, “Induction of Oligodendrocyte Differentiation and In Vitro Myelination by Inhibition of Rho-Associated Kinase” (ASN NEURO, 2014):
pIC50: −log10 of the molar value.

Tested on: mouse neurosphere-derived oligodendrocyte precursor cells (Nph-OPCs)
Assay: Morphology-based OPC differentiation assay (branches, outgrowth; high-content imaging)
Format: cell-based
Conditions: Mus musculus, Oligodendrocyte precursor cell, 72 h, read-out: IC50, generation of branches in OPC differentiation assay
Description: Neurospheres (Nph) were prepared from embryos at 14.5 days of gestation obtained from timed pregnant females of C57/Bl6 mice, as previously described ([Kornblum, Yanni, Easterday, & Seroogy, 2000]; [Pedraza, Monk, Lei, Hao, & Macklin, 2008]). In brief, after separation of meninges and cerebellum, cerebrum tissue was mechanically triturated with a 1-ml micropipette until total tissue dissociation was achieved, filtered through a 70 -µm cell strainer (Fisher Scientific, Pittsburgh, PA), and plated in 25-cm^2 plastic culture flasks (2 brains/flask). Nph proliferation media (NPM) consisted of Dulbecco’s Modified Eagle Medium (DMEM)/F12, B27 neuronal supplement (Gibco, Baltimore, MD) and 10 ng/ml […] (EGF; Sigma, St. Louis, MO). After 48 to 72 hr, floating Nphs were passaged at a 1 : 1 ratio into 75-cm^2 culture flasks. After a further 48 to 72 hr, they were passaged into 150-cm^2 flasks. Subsequent passages were performed every 3 to 4 days at a ratio of 1 : 2 or 1 : 3 in the same media, and Nph were used to generate OPCs for no more than 12 passages.
OPCs were generated by chemical disaggregation of Nph with a mouse neural progenitor dissociation kit following the manufacturer instructions (NeuroCult, StemCell Technologies, AB, Canada). The single-cell suspension was then filtered through a 40 -µm cell strainer and plated on poly-D-lysine (PDL)-coated plates. […]
To determine the effects of ROCK inhibition on OPCs, we developed a high-content image morphological analysis of OPC differentiation using mouse embryonic neural progenitor-derived OPCs (Nph-OPCs). […] Four images per well were analyzed using a neurite outgrowth module (Molecular Devices, Sunnyvale, CA). We quantified the number of branches and total outgrowth per cell (Figure 1). […] Additionally, nuclear staining by Hoechst allowed the accurate association of branches and processes to their corresponding cell bodies and permitted quantification of total cell numbers in each well.

C[C@@H](N)[C@H]1CC[C@H](C(=O)Nc2ccncc2)CC1.Cl.Cl [Y0503, trans-4-[(1 R)-1-aminoethyl]-N-4-pyridinylcyclohexanecarboxamide dihydrochloride]
pIC50: 5.57
